Test results taken from patent US12280125B2 (Imam Abdulrahman Bin Faisal University, priority 2022, dated 2025).

Tests used:
[1] = Body weight during 28 days; parameters: species or system rats; conditions: rat, in vivo
[2] = tested on: liver tissue; assay: Histopathological evaluation of liver (H&E); assay type: in vivo; conditions: diabetic rats, after treatment
Excerpt: (§1) After treatment, the organs (liver and pancreas) of the rats were collected for histopathological evaluation. […] To collect the tissue at the end of the treatment time, animals were sacrificed under anesthetic conditions. These tissues were washed with phosphate-buffered saline (PBS) and fixed in 10% formalin (Tissue processing station-Tissue Teck VIP 5). The collected samples were properly stored under normal room temperature and were cut/sliced using a semiautomated microtome (Accu-Cut SRM system) into a few small pieces of 3-5 mm from each sample tissue and were separately embedded in paraffin blocks. These sliced tissues were mounted on the glass slides and were properly fixed on the glass slide with a hot plate. After this xylene was used to remove the paraffin from the tissues and was rehydrated by using a series of graded ethanol dilutions, 100%, 90%, and 70%. The rehydrated tissue sections were stained with hematoxylin and eosin (H&E) and were examined using light microscopy to determine the architecture and proportions of islet and acinar cells in the pancreas and hepatocytes in the liver. […] These cords of hepatocytes are separated by narrow intervening sinusoids lined by endothelial cells and Kupffer cells. No inflammatory cells are seen (FIG. 20A).

[3] = tested on: pancreatic tissue; assay: Histopathological evaluation of pancreas (H&E); assay type: in vivo; conditions: diabetic rats, after treatment
Excerpt: as §1, with “In the control group, acinar” for “These cords of hepatocytes are separated by narrow intervening sinusoids lined by endothelial cells”, “islet” for “Kupffer cells. No inflammatory”, “seen in the pancreas in normal proportions. The acinar cells are arranged in lobules and are stained darkly with prominent nuclei. The islet cells are embedded within the acinar cells and surrounded by a fine capsule” for “seen”, “19A). […]” for “20A).”

[4] = tested on: diabetic animals; assay: Non fasting blood glucose levels during 28 days; assay type: in vivo, rats; conditions: standard insulin group
Protocol: Non fasting blood glucose levels were measured for all the groups during the 28 days.

[5] = tested on: diabetic animals; assay: Long-term effect on fasting blood glucose over 28 days; assay type: in vivo, rats; conditions: standard insulin treated group

Q: Which results are given for “standard insulin: standard insulin dose used as the comparison treatment group in diabetic rats”?
A: Body weight at day 28 compared to the weight at day 21 [1]: significant (p=<0.001) improvement; Improvement in body weight compared to diabetic control group [1]: significant (p=<0.0001); Liver histology [2]: the liver histology shows mostly a normal lobular architecture with normal cords of hepatocytes with intervening patent sinusoids with focal congestion with only occasional hepatocytes showing degenerative changes and no inflammation is seen; Pancreatic histology [3]: the pancreatic histology is similar to that of the diabetic control; Non fasting blood glucose level at day 1 [4]: 487 mg/dL; Non fasting blood glucose level at day 28 [4]: 371 mg/dL; Fasting blood glucose level, initial [5]: 433 mg/dL; Fasting blood glucose level, reduced ([5]; p=<0.001): 371 mg/dL
